According to US7407775B2, “Method for identifying Listeria monocytogenes and culture medium” (Biomerieux S.A., priority 2000, dated 2008):

Legend:
Type in all cases: cell-based
Set-up in all cases: key: —: the symbol “-” corresponds to the absence of color or intensity; 0 corresponds to no activity; 0.1 corresponds to a trace of color; 0.5 corresponds to very pale coloration; 1 corresponds to clear but low-intensity coloration; 1.5 corresponds to a degree of coloration intermediate between scores 1 and 2; 2 corresponds to clear coloration of moderate intensity; 2.5 corresponds to a degree of coloration intermediate between scores 2 and 3; 3 corresponds to intense coloration; 3.5 corresponds to a degree of coloration intermediate between scores 3 and 4; 4 corresponds to very intense coloration
[1] = system: Listeria grayi ATCC 19120; experiment: Experiment 1: esterase substrates, same chromogenic marker, fatty acids of different chain lengths; conditions: 37° C., substrate 250 mg/l
Protocol: A stock solution of each substrate at a concentration of 40 g/l was made up in a mixture of 40% Dimethylsulfoxide and 60% Polyoxyethylenesorbitan Monolaurate (Tween 20). An appropriate volume was added to three Columbia-type media while cooling to give a final substrate concentration of 250 mg/l. These dishes were divided into three areas and then each area was inoculated with a suspension (density=0.5 McFarland) of microorganisms taken from either the Applicant's own collection or the ATCC. The dishes were incubated for 48 hours at 37° C. The colonies which grew were examined by eye after 24 and 48 hours of incubation. Both the color and the intensity of the color of the colonies were recorded.
(§1) In Table 1 above, as in the following Tables, C represents the color of the colonies after incubation, I represents the intensity of the color, and the symbol “-” corresponds to the absence of color or intensity; finally, IT defines the incubation time. It should be noted that the intensity of the color is scored on an arbitrary scale but one which is consistent for all the biological specimens and media tested. This scale is valid for this experiment as well as all those that follow. It can be defined in the following way: • 0 corresponds to no activity, • 0.1 corresponds to a trace of color, • 0.5 corresponds to very pale coloration, • 1 corresponds to clear but low-intensity coloration, • 1.5 corresponds to a degree of coloration intermediate between scores 1 and 2, • 2 corresponds to clear coloration of moderate intensity, • 2.5 corresponds to a degree of coloration intermediate between scores 2 and 3, • 3 corresponds to intense coloration, • 3.5 corresponds to a degree of coloration intermediate between scores 3 and 4, • 4 corresponds to very intense coloration.

[2] = system: Listeria grayi ATCC 19120; experiment: Experiment 3: detecting an esterase activity in liquid medium (API-type strips); conditions: 37° C.
Protocol: as §1
(§2) These substrates were lyophilized in the wells of API-type strips (Registered Trademark). Before use, the substrates contained in the wells were resuspended in an agar-free Columbia-type inoculation medium. These wells were then inoculated with a suspension (density=2 McFarland) of microorganisms taken from either the Applicant's own collection or the ATCC. The strips were incubated for 8 hours at 37° C. The colonies which grew were examined by eye after 4, 6 and 8 hours of incubation.
(§3) The intensity of the color of the colonies was recorded.

Listeria welshimeri 023 = experiment: as above; conditions: 37° C.
Protocol: as §1, §2, §3

Listeria innocua 171 = experiment: as above; conditions: 37° C.
Protocol: as §1, §2, §3

Listeria innocua 166 = experiment: as above; conditions: 37° C.
Protocol: as §1, §2, §3

[3] = system: Listeria monocytogenes ATCC 19115; experiment: as above; conditions: 37° C.
Protocol: as §1, §2, §3

Row | SMILES | C (color of the colonies) ([1]; IT 24 h) | I (intensity of the color) ([1]; IT 24 h) | C (color of the colonies) ([1]; IT 48 h) | I (intensity of the color) ([1]; IT 48 h) | I (intensity of the color) ([2]; IT 4 h) | I (intensity of the color) ([2]; IT 6 h) | I (intensity of the color) ([2]; IT 8 h) | I (intensity of the color) (Listeria welshimeri 023; IT 4 h) | I (intensity of the color) (Listeria welshimeri 023; IT 6 h) | I (intensity of the color) (Listeria welshimeri 023; IT 8 h) | I (intensity of the color) (Listeria innocua 171; IT 4 h) | I (intensity of the color) (Listeria innocua 171; IT 6 h) | I (intensity of the color) (Listeria innocua 171; IT 8 h) | I (intensity of the color) (Listeria innocua 166; IT 4 h) | I (intensity of the color) (Listeria innocua 166; IT 6 h) | I (intensity of the color) (Listeria innocua 166; IT 8 h) | I (intensity of the color) ([3]; IT 4 h) | I (intensity of the color) ([3]; IT 6 h) | I (intensity of the color) ([3]; IT 8 h)
1 | CCCCCCCC(=O)Oc1c[nH]c2ccc(Br)cc12 [Blue-C8, 5-Bromo-3-indolyl octanoate] | — | — | — | — |  |  |  |  |  |  |  |  |  |  |  |  |  |  | 
2 | CCCCCCCC(=O)Oc1c[nH]c2cc(Cl)c(Br)cc12 [Magenta-C8, 5-Bromo-6-chloro-3-indolyl octanoate] |  |  |  |  | — | — | — | — | — | — | — | — | — | — | — | — | — | — | 0.5
3 | CCCCCCCC(=O)Oc1c[nH]c2cc(Cl)ccc12 [Pink-C8, 6-Chloro-3-indolyl octanoate] |  |  |  |  | — | — | — | — | — | — | — | — | — | — | — | — | — | — | —
4 | CCCCCCCCCC(=O)Oc1c[nH]c2ccc(Br)cc12 [Blue-C10, 5-Bromo-3-indolyl decanoate] | — | — | — | — |  |  |  |  |  |  |  |  |  |  |  |  |  |  | 
5 | CCCCCCCC(=O)Oc1c[nH]c2ccc(Br)c(Cl)c12 [X-C8, 5-Bromo-4-chloro-3-indolyl octanoate] |  |  |  |  | — | — | — | — | — | — | — | — | — | — | — | — | — | 1 | 1.5
6 | CCCCCCCCC(=O)Oc1c[nH]c2ccc(Br)cc12 [Blue-C9, 5-Bromo-3-indolyl nonanoate] | — | — | — | — |  |  |  |  |  |  |  |  |  |  |  |  |  |  | 
